We go through 30 compounds from patent publication US20260226031A1, “NOVEL COMPOUNDS” (NRG THERAPEUTICS LTD., priority 2023, published 2026).

Experiment [1] has as its system mPTP. As to the kind of experiment: mPTP activity (Ca2+ retention) assay in isolated rat brain mitochondria. The format is biochemical. Particulars: for mPTP Rat brain pIC50: isolated rat brain mitochondria, Fluo5N fluorescence at 10 min after Ca2+ (75 μM) bolus. A digest of the protocol: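 Mitochondria freshly isolated from brains of perfused female Sprague Dawley rats, digitonin-treated, in pH 7.4 mannitol/MOPS/KCl buffer with pyruvate, malate, ADP and oligomycin A. Incubated with compound 10 min at RT with 2 μM Fluo5N. Fluorescence then read every 3 s for 10 min.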

Experiment [2] deals with mPTP. Kind of experiment: mPTP activity (Ca2+ retention) assay in isolated rat liver mitochondria. The following applies: isolated rat liver mitochondria; Fluo5N fluorescence at 10 min after CaCl2 (75 μM) bolus; DMSO 0%, 5 μM cyclosporin A 100% inhibition. The format is biochemical. An outline of the steps:
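Freshly isolated female Sprague Dawley rat liver mitochondria with succinate, rotenone and Fluo5N were preincubated 10 min at RT with compounds (final 30 μM to 1 nM), then challenged with CaCl2. Fluorescence at 10 min gave % inhibition versus DMSO (0%) and 5 μM cyclosporin A (100%); pIC50 calculated.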

As for `O=C(c1cc(O)no1)N1CC(c2cccc(F)c2F)C2(CCC2)C1` (single isomer, unassigned) [Example 39a, (8-(2,3-difluorophenyl)-6-azaspiro[3.4]octan-6-yl)(3-hydroxyisoxazol-5-yl)methanone], in experiment [1], the “mPTP Rat brain pIC50” value was 7.41. Further, in experiment [2], the “mPTP Rat liver pIC50*” value came to 6.47.
Taken in the same sequence, the figures for `O=C(c1cncc(O)n1)N1CC(c2ccccc2)C2(CCC2)C1` (stereo not shown) [Example 2, (6-hydroxypyrazin-2-yl)(8-phenyl-6-azaspiro[3.4]octan-6-yl)methanone] were 6.90 and 5.80.
Taken in the same sequence, the figures for `O=C(c1noc(=O)[nH]1)N1CC(c2ccccc2)C2(CCC2)C1` (single isomer, unassigned) [Example 34b, 3-(8-phenyl-6-azaspiro[3.4]octane-6-carbonyl)-1,2,4-oxadiazol-5(4H)-one] were less than 4.52 and less than 4.52.
Taken in the same sequence, the figures for `Cn1nc(C(=O)N2C[C@@H](c3ccccc3)C3(CCC3)C2)[nH]c1=O` (single isomer, unassigned) [Example 5b] were 6.55 and 5.33.
For the compound `O=C(c1cncc(=O)[nH]1)N1CC(c2ccc(Cl)cc2)C2(CCC2)C1` (single isomer, unassigned) [Example 16a, 6-[8-(4-Chlorophenyl)-6-azaspiro[3.4]octane-6-carbonyl]-1H-pyrazin-2-one], the “mPTP Rat brain pIC50” value in experiment [1] came out at 6.39. Further, the “mPTP Rat liver pIC50*” value in experiment [2] was 5.58.
Taken in the same sequence, the figures for `O=C(c1noc(=O)[nH]1)N1CC(c2ccccc2)C2(CCC2)C1` (stereo not shown) [Example 24, 3-[8-Phenyl-6-azaspiro[3.4]octane-6-carbonyl]-4H-1,2,4-oxadiazol-5-one] were 6.75 and 6.02.
For `O=C(c1noc(=O)[nH]1)N1CC(c2ccc(F)cc2F)C2(CCC2)C1` (single isomer, unassigned) [Example 48b, 3-(8-(2,4-difluorophenyl)-6-azaspiro[3.4]octane-6-carbonyl)-1,2,4-oxadiazol-5(4H)-one] the same measures were less than 4.52 and less than 4.52.
For `O=C(c1noc(=O)[nH]1)N1CC(c2ccc(F)c(F)c2)C2(CCC2)C1` (single isomer, unassigned) [Example 47a, 3-(8-(3,4-difluorophenyl)-6-azaspiro[3.4]octane-6-carbonyl)-1,2,4-oxadiazol-5(4H)-one] the same measures were 7 and 5.75.
Regarding `CCC1CN(C(=O)c2cncc(=O)[nH]2)CC1c1ccccc1` (single isomer, unassigned) [Example 15c, 6-(3-ethyl-4-phenylpyrrolidine-1-carbonyl)pyrazin-2(1H)-one], in experiment [1], the “mPTP Rat brain pIC50” value was 5.93. In experiment [2], the “mPTP Rat liver pIC50*” value was determined as 5.24.
Taken in the same sequence, the figures for `O=C(c1nccc(=O)[nH]1)N1CC(c2ccccc2)C2(CC(F)C2)C1` (single isomer, unassigned) [Example 25b, 2-(2-fluoro-8-phenyl-6-azaspiro[3.4]octane-6-carbonyl)pyrimidin-4(3H)-one] were 5.57 and less than 4.52.
As to `O=C(c1cncc(=O)[nH]1)N1CC(c2ccccc2Cl)C2(CCC2)C1` (single isomer, unassigned) [Example 30b, 6-(8-(2-chlorophenyl)-6-azaspiro[3.4]octane-6-carbonyl)pyrazin-2(1H)-one], the “mPTP Rat brain pIC50” value in experiment [1] is less than 4.52. The “mPTP Rat liver pIC50*” value in experiment [2] is on record as less than 4.52.
On to `O=C(c1cncc(=O)[nH]1)N1CC(c2cccc(F)c2F)C2(CCC2)C1` (single isomer, unassigned) [Example 43b, 6-(8-(2,3-difluorophenyl)-6-azaspiro[3.4]octane-6-carbonyl)pyrazin-2(1H)-one], for which the “mPTP Rat brain pIC50” value in experiment [1] worked out at 5.69. In addition, the “mPTP Rat liver pIC50*” value in experiment [2] came out at 4.94.
In the case of `CCC1CN(C(=O)c2cncc(=O)[nH]2)CC1c1ccccc1` (single isomer, unassigned) [Example 15a, 6-(3-ethyl-4-phenylpyrrolidine-1-carbonyl)pyrazin-2(1H)-one], the “mPTP Rat brain pIC50” value in experiment [1] turned out to be 6.1. Moreover, the “mPTP Rat liver pIC50*” value in experiment [2] came out at 5.27.
Taken in the same sequence, the figures for `O=C(c1cncc(=O)[nH]1)N1CC(c2cccc(F)c2)C2(CCC2)C1` (single isomer, unassigned) [Example 40a, 6-(8-(3-fluorophenyl)-6-azaspiro[3.4]octane-6-carbonyl)pyrazin-2(1H)-one] were 7.34 and 6.55.
Taken in the same sequence, the figures for `O=C(c1cncc(=O)[nH]1)N1CC(c2cccc(F)c2)C2(CCC2)C1` (single isomer, unassigned) [Example 40b, 6-(8-(3-fluorophenyl)-6-azaspiro[3.4]octane-6-carbonyl)pyrazin-2(1H)-one] were less than 4.52 and 4.97.
Consider `O=C(c1cncc(=O)[nH]1)N1CC(c2cccc(Cl)c2F)C2(CCC2)C1` (single isomer, unassigned) [Example 33b, 6-(8-(3-chloro-2-fluorophenyl)-6-azaspiro[3.4]octane-6-carbonyl)pyrazin-2(1H)-one], for which the “mPTP Rat brain pIC50” value in experiment [1] is recorded as less than 4.52. Also, the “mPTP Rat liver pIC50*” value in experiment [2] was less than 4.52.
As to `O=C(c1noc(=O)[nH]1)N1CC(c2ccc(F)c(F)c2)C2(CCC2)C1` (single isomer, unassigned) [Example 47b, 3-(8-(3,4-difluorophenyl)-6-azaspiro[3.4]octane-6-carbonyl)-1,2,4-oxadiazol-5(4H)-one], the “mPTP Rat brain pIC50” value in experiment [1] is on record as less than 4.52. Besides, in experiment [2], the “mPTP Rat liver pIC50*” value is less than 4.52.
Take `O=C(c1cncc(=O)[nH]1)N1CC(c2cc(Cl)ccc2F)C2(CCC2)C1` (single isomer, unassigned) [Example 32a]: the “mPTP Rat brain pIC50” value in experiment [1] is 7.19. Besides, in experiment [2], the “mPTP Rat liver pIC50*” value came out at 5.87.
For `O=C(c1cncc(=O)[nH]1)N1CC(c2cccc(F)c2F)C2(CCC2)C1` (single isomer, unassigned) [Example 43a, 6-(8-(2,3-difluorophenyl)-6-azaspiro[3.4]octane-6-carbonyl)pyrazin-2(1H)-one] the same measures were 7.43 and 6.56.
Taken in the same sequence, the figures for `O=C(c1nccc(=O)[nH]1)N1CC(c2ccccc2)C2(CC(F)C2)C1` (single isomer, unassigned) [Example 25c, 2-(2-fluoro-8-phenyl-6-azaspiro[3.4]octane-6-carbonyl)pyrimidin-4(3H)-one] were 6.54 and 5.68.
Regarding `O=C(c1cc(O)no1)N1CC(c2ccccc2)C2(CCC2)C1` (stereo not shown) [Example 22, (3-hydroxyisoxazol-5-yl)(8-phenyl-6-azaspiro[3.4]octan-6-yl)methanone], the “mPTP Rat brain pIC50” value in experiment [1] was determined as 6.7. The “mPTP Rat liver pIC50*” value in experiment [2] was found to be 6.12.
Taken in the same sequence, the figures for `Cn1nc(C(=O)N2C[C@H](c3ccccc3)C3(CCC3)C2)[nH]c1=O` (single isomer, unassigned) [Example 5c] were less than 4.52 and less than 4.52.
Taken in the same sequence, the figures for `CC1(C)CN(C(=O)c2cncc(=O)[nH]2)CC1c1ccccc1` (stereo not shown) [Example 8, 6-(3,3-dimethyl-4-phenylpyrrolidine-1-carbonyl)pyrazin-2(1H)-one] were 6.97 and 6.04.
Take `CCC1CN(C(=O)c2cncc(=O)[nH]2)CC1c1ccccc1` (single isomer, unassigned) [Example 15b, 6-(3-ethyl-4-phenylpyrrolidine-1-carbonyl)pyrazin-2(1H)-one]: in experiment [1], the “mPTP Rat brain pIC50” value came to 4.81. Besides, in experiment [2], the “mPTP Rat liver pIC50*” value was less than 4.52.
For `O=C(c1cncc(O)n1)N1CC(c2ccccc2)C2(CCC2)C1` (single isomer, unassigned) [Example 6a, (6-hydroxypyrazin-2-yl)(8-phenyl-6-azaspiro[3.4]octan-6-yl)methanone] the same measures were 7.34 and 6.39.
For `O=C(c1cc(O)no1)N1CC(c2cccc(F)c2)C2(CCC2)C1` (single isomer, unassigned) [Example 38a, (8-(3-fluorophenyl)-6-azaspiro[3.4]octan-6-yl)(3-hydroxyisoxazol-5-yl)methanone] the same measures were 7.34 and 6.41.
For `O=C(c1cc(O)no1)N1CC(c2ccccc2)C2(CCC2)C1` (single isomer, unassigned) [Example 23b, (3-hydroxyisoxazol-5-yl)(8-phenyl-6-azaspiro[3.4]octan-6-yl)methanone] the same measures were less than 4.52 and less than 4.52.
Turning to `O=C(c1cc(O)no1)N1CC(c2ccc(F)cc2)C2(CCC2)C1` (single isomer, unassigned) [Example 36a, (8-(4-fluorophenyl)-6-azaspiro[3.4]octan-6-yl)(3-hydroxyisoxazol-5-yl)methanone], the “activity in the rat brain mitochondria assay (ranking in words)” value in experiment [1] (among tested Example compounds) is recorded as “highest activity”. In experiment [1], the “mPTP Rat brain pIC50” value was determined as 7.53. For the same compound, in experiment [2], the “mPTP Rat liver pIC50*” value is listed as 6.65.
Consider `O=C(c1cncc(=O)[nH]1)N1CC(c2cccc(Cl)c2F)C2(CCC2)C1` (single isomer, unassigned) [Example 33a, 6-(8-(3-chloro-2-fluorophenyl)-6-azaspiro[3.4]octane-6-carbonyl)pyrazin-2(1H)-one], for which the “mPTP Rat brain pIC50” value in experiment [1] worked out at 7.32. Further, in experiment [2], the “mPTP Rat liver pIC50*” value is 5.77.
For `CC1(C)CN(C(=O)c2cncc(=O)[nH]2)CC1c1ccccc1` (single isomer, unassigned) [Example 10a, 6-(3,3-dimethyl-4-phenylpyrrolidine-1-carbonyl)pyrazin-2(1H)-one] the same measures were 7.03 and 6.18.
